{"source": "patent US20260193246A1", "about": "“METHOD OF MAKING LANIFIBRANOR” (INVENTIVA, priority 2023, published 2026)", "assay_type_in_all_cases": "physicochemical", "key": {"[1]": {"experiment": "Angle of repose (powder flow, Electrolab EFT-01)", "conditions": "50 g of powder through an orifice of 25 mm; rounded average of three experiments", "procedure": "Powder flow and the angle of repose were determined using an Electrolab EFT-01 apparatus. In a first step, powder flow is measured through various orifices (10, 15 and 25 mm). In a second step, the angle of repose is measured by the height of the cone formed by a sample of 50 g of powder passing through an orifice of 25 mm. The result obtained in the rounded average of three experiments."}, "[2]": {"experiment": "Compressibility index and Hausner ratio from bulk and tapped density (Electrolab ETD-1020)", "procedure": "The compressibility index and Hausner ratio were determined using an Electrolab ETD-1020 apparatus using measured values of bulk density (ρbulk) and tapped density (ρtapped) as follows: [formula] [formula]"}, "[3]": {"experiment": "Dynamic vapor sorption (DVS)", "conditions": "range 0% RH-95% RH", "from_the_text": "Crystalline form beta of lanifibranor is also characterized by its dynamic vapor sorption (DVS). […] In some embodiments, the DVS isotherm plot of crystalline form beta of lanifibranor is substantially in accordance with FIG. 4."}, "Thermogravimetry (TGA)": {"experiment": "Thermogravimetry (TGA)", "conditions": "temperature range 25-200° C.", "procedure": "Crystalline form beta of lanifibranor is also characterized by its thermogravimetry (TGA) curve. […] Above 250° C., the weight loss observed likely corresponds to degradation. In some embodiments, said TGA curve is substantially in accordance with FIG. 3."}}, "data": [{"smiles": "O=C(O)CCCc1cc2cc(Cl)ccc2n1S(=O)(=O)c1ccc2ncsc2c1", "note": "[crystalline form beta of lanifibranor, 1-(6-benzothiazolylsulfonyl)-5-chloro-1H-indole-2-butanoic acid]", "values": [{"measurement": "angle of repose", "setting": "[1]", "value": 35, "unit": "°"}, {"measurement": "Hausner ratio", "setting": "[2]", "value": 1.26}, {"measurement": "compressibility index", "setting": "[2]", "value": 20.64}, {"measurement": "maximum uptake (weight variation, DVS)", "setting": "[3]", "value": "+0.1%"}, {"measurement": "weight loss (TGA)", "setting": "Thermogravimetry (TGA)", "value": "does not highlight any significant weight loss"}]}]}
